Results taken from PMC6149849, “Cymantrenyl-Nucleobases: Synthesis, Anticancer, Antitrypanosomal and Antimicrobial Activity Studies” (Molecules : A Journal of Synthetic Chemistry and Natural …, 2017).
Read-outs that look alike come from different tables or passages of the source.

Legend:
[1] = system: SKOV-3 (ovarian adenocarcinoma); experiment: MTT cytotoxicity assay, SKOV-3; format: cell-based, human
Description: (§6) Anticancer activity of cymantrenes was determined using a panel of human cancer cell lines that were derived from solid tumors. […] The inhibitory effect of cymantrene derivatives on cell proliferation and growth was determined based on survival curves and was expressed as IC50 values (concentration required to achieve a 50% decrease in cell viability when compared to the viability of untreated control cells) calculated using GraphPad Prism 4.02 software for Windows (GraphPad Software, San Diego, CA, USA). Cell viability was determined by the MTT microplate spectrophotometric cytotoxicity test.
(§7) The cytotoxicity of cymantrene derivatives was evaluated by the MTT microplate methods as described elsewhere [67] by incubating the cells with increasing concentrations of tested compounds for 24 h. Briefly, 0.1 mL of logarithmically growing cells were seeded in a 96-well microplate (5 × 10^4 cells/well) a day before the experiments and after 24 h of culture, tested compounds, dissolved in DMSO, and diluted in culture medium, were added. […] After further incubation for 24 h, the medium was replaced with fresh medium and the cells were allowed to grow for additional 48 h. Then, the medium was aspirated and 0.05 mL of MTT (final concentration of 5 mg/mL medium) added to each well, and the cells were incubated for further 4 h. The absorbance of the product, resulting from the MTT reduction, was read with a microplate reader at 545 nm. The percentage of viable cells was calculated by comparing the absorbance of treated cells with that of the untreated control cells (taken as 100%). The IC50 concentration of each compound was calculated from the cell survival curves using GraphPad Prism 4.02 software for Windows (GraphPad Software, San Diego, CA, USA).

[2] = system: A549 (non-small cell lung carcinoma); experiment: MTT cytotoxicity assay, A549
Description: Anticancer activity of cymantrenes was determined using a panel of human cancer cell lines that were derived from solid tumors. These included cell lines of estrogen-responsive, doxorubicin resistant, and triple negative breast adenocarcinomas (MCF-7, MCF-7/DX, and MDA-MB-231), ovarian adenocarcinoma (SKOV-3), non-small cell lung carcinoma (A549), hepatocellular carcinoma (HepG2), and glioblastoma (U-87 MG). The inhibitory effect of cymantrene derivatives on cell proliferation and growth was determined based on survival curves and was expressed as IC50 values (concentration required to achieve a 50% decrease in cell viability when compared to the viability of untreated control cells) calculated using GraphPad Prism 4.02 software for Windows (GraphPad Software, San Diego, CA, USA). Cell viability was determined by the MTT microplate spectrophotometric cytotoxicity test.
Anticancer activity of cymantrene derivetives were determined on the basis of their cytotoxic effects on a panel of human cancer cells, as derived from different types of solid tumors: estrogen responsive breast adenocarcinoma (MCF-7), triple negative breast adenocarcinoma (MDA-MB-231), ovarian adenocarcinoma (SKOV-3), non-small cell lung carcinoma (A549), hepatocellular carcinoma (HepG2), and glioblastoma (U-87 MG). Additionally, doxorubicin resistant breast adenocarcinoma cells (MCF-7/Dox) were also included for comparison. All of the cell lines were purchased from American Type Culture Collection (ATCC, Rockville, MD, USA), except the MCF-7/dox cell line, which was a generous gift from Professor Malgorzata Latocha from the Department of Cell Biology, Medical University of Silesia in Katowice, Poland.
Cells were grown as a monolayer in DMEM growth medium, supplemented with 10% FBS, penicillin (10 U/mL) and streptomycin (50 μg/mL), under standard conditions (37 °C, 5% CO2 and 95% air, 100% humidity) and periodically checked for Mycoplasma contamination.
The cytotoxicity of cymantrene derivatives was evaluated by the MTT microplate methods as described elsewhere by incubating the cells with increasing concentrations of tested compounds for 24 h. Briefly, 0.1 mL of logarithmically growing cells were seeded in a 96-well microplate (5 × 10^4 cells/well) a day before the experiments and after 24 h of culture, tested compounds, dissolved in DMSO, and diluted in culture medium, were added. […] After further incubation for 24 h, the medium was replaced with fresh medium and the cells were allowed to grow for additional 48 h. Then, the medium was aspirated and 0.05 mL of MTT (final concentration of […] medium) added to each well, and the cells were incubated for further 4 h. The absorbance of the product, resulting from the MTT reduction, was read with a microplate reader at 545 nm. The percentage of viable cells was calculated by comparing the absorbance of treated cells with that of the untreated control cells (taken as 100%). The IC50 concentration of each compound was calculated from the cell survival curves using GraphPad Prism 4.02 software for Windows (GraphPad Software, San Diego, CA, USA).

[3] = system: human myeloid leukemia HL-60 cells; conditions: cited from earlier work
U87-MG (glioblastoma) = experiment: MTT cytotoxicity assay, U87-MG; format: cell-based, human
Description: as §6, §7

[4] = system: MCF-7 (hormone-responsive breast adenocarcinoma); experiment: MTT cytotoxicity assay, MCF-7; format: cell-based, human
Description: as §6, §7

[5] = system: MDA-MB-231 (triple negative breast adenocarcinoma); experiment: MTT cytotoxicity assay, MDA-MB-231; format: cell-based, human
Description: as §6, §7

[6] = system: bloodstream forms of T. brucei clone 427-221a; conditions: cited from earlier work
SKOV-3 cells [7] = experiment: Apoptotic/necrotic cell death, Hoechst 33258/propidium iodide staining, fluorescence microscopy; format: cell-based, human; conditions: for increase of apoptotic cells compared to untreated control cells: SKOV-3, 24 h treatment with IC50 concentrations, post-treatment 24 and 48 h
Description: (§1) To determine the mode of cell death that was triggered by cymantrene derivatives, appropriately stained SKOV-3 cells were evaluated for morphological changes using fluorescence microscopy. For evaluation of apoptosis and autophagy, cells were stained with Hoechst 33258/propidium iodide to distinguish between live, apoptotic and necrotic cells and reveal condensed chromatin and apoptotic bodies (a hallmark of apoptosis), and with acridine orange to detect the development of acidic vesicular organelles (AVOs—a hallmark of autophagy).
(§2) One day prior to the experiments, cells were seeded at the appropriate density into 35 mm diameter dishes. […] At the end of incubation, the medium was aspirated, the cell monolayer was washed twice with pre-warmed PBS, and fresh medium was added. The cells were cultured in drug-free medium for an additional 24 or 48 h to enable them to recover after the exposure to the compounds and to repair any induced damages.
Quantitative analysis of morphological changes that are associated with apoptosis, necrosis, and autophagy were assessed using a fluorescence microscope (Olympus IX70, Tokyo, Japan) at 400× magnification, as described elsewhere. At the indicated time points, cells were washed with PBS, trypsinized, and centrifuged at 1000 rpm (fixed angle rotor, 72× g) for 5 min at 37 °C. The supernatant was removed and the cell pellet (100 µL) was transferred to the Eppendorf tube, mixed with Ho33258 (2 µL, 0.13 mM) and PI (2 µL, 0.23 mM), and incubated for 5 min in the dark at room temperature. At least 300 stained cells were counted in triplicate in each of the three independent experiments. Cells were classified as live, apoptotic, or necrotic on the basis of their morphological and staining characteristics, and each fraction was related to the total cell number.

SKOV-3 cells [8] = experiment: Autophagy (acidic vesicular organelles, AVOs), acridine orange staining; format: cell-based, human; conditions: SKOV-3, IC50 concentrations 24 h, then 0, 24 or 48 h drug-free
Description: as §1, §2
The ability of tested compounds to induce autophagosome formation inside cells (the process associated with the induction of autophagy) was evaluated by microscopic examination of the morphology of cells stained with acridine orange (AO).

[9] = system: HepG2 (hepatocellular carcinoma); experiment: MTT cytotoxicity assay, HepG2; format: cell-based, human
Description: as §6, §7

[10] = system: MCF-7/DX (estrogen-responsive breast adenocarcinoma resistant to doxorubicin); experiment: cells; format: cell-based, human
Description: as §7

[11] = system: S. epidermidis ATCC 12228; experiment: Antibacterial liquid microdilution (CLSI M07-A8); format: cell-based, Staphylococcus epidermidis; conditions: 18 to 24 h
Description: (§3) Organometallic compounds play an increasingly important role in the search for new antibacterial agents. We, therefore, thought to investigate also the bactericidal activity of the newly synthesized cymantrenes 1–7, compound C and CymH. The antibacterial activity of the compounds was tested against Gram-positive methicillin-sensitive Staphylococcus aureus (MSSA), methicillin-resistant S. aureus (MRSA), vancomycin-intermediate S. aureus (VISA), S. epidermidis, and Gram-negative Escherichia coli bacterial strains, and expressed as minimal inhibitory concentration (MIC) values (Table 3).
(§4) The antibacterial activity of CymH, 1–7 and C and the reference drugs penicillin G and polymyxin B was tested by the liquid microdilution method under standard conditions using twofold dilution series, as described in the Clinical and Laboratory Standards Institute (CLSI), reference method M07-A8, and expressed as minimal inhibitory concentration (MIC) values. A panel of Gram-positive bacterial strains, S. aureus ATCC® 29213 (sensitive to methicillin, (MSSA)), S. aureus ATCC® 43300 (resistant to methicillin, (MRSA)), S. aureus ATCC 700787™ (intermediate to vancomycin, (VISA)), and S. epidermidis ATCC 12228™, and one Gram-negative, strain E. coli ATCC BAA-198™ (ESBL) were used. In addition, four clinical isolates of S. aureus (MSSA and MRSA) and two clinical isolates of S. epidermidis that were collected from different patients at the Medical University of Warsaw, Poland, were also tested. The bacterial cells were cultivated on tryptic soy agar (TSA) and nutrient agar (NA), according to ATCC recommendations. All of the strains were incubated at 37 °C. Tested compounds were dissolved in DMSO and then serially diluted twofold with cation-adjusted Mueller-Hinton broth (CAMHB). Then, 95 µL of the dilutions were dispensed into microdilution sterile plates (Mar-Four), followed by the addition of 5 µL of bacteria inoculum containing 5 × 10^4 CFU/mL. The final concentrations of the compounds ranged from 512 to 2 µg/mL. Each compound was tested in triplicate, and Penicillin G (8–0.15 µg/mL) and Polymyxin B (256–0.0625 µg/mL) were used as controls. The plates were incubated at 37 °C for 18 to 24 h depending on the bacterial strain. Thereafter, the absorbance was measured at λ = 540 nm and λ = 595 nm using a Spectrostar Omega microplate reader (BMG Labtech, Offenburg, Germany). The MIC value was defined as the lowest concentration of a compound that reduced the growth by 100%.

[12] = system: S. aureus ATCC 29213 (MSSA); experiment: Antibacterial liquid microdilution (CLSI M07-A8); format: cell-based, Staphylococcus aureus; conditions: 18 to 24 h
Description: as §3, §4

[13] = system: S. aureus ATCC 700787 (VISA); experiment: Antibacterial liquid microdilution (CLSI M07-A8); format: cell-based, Staphylococcus aureus; conditions: 18 to 24 h
Description: as §3, §4

[14] = system: S. aureus ATCC 43300 (MRSA); experiment: Antibacterial liquid microdilution (CLSI M07-A8); format: cell-based, Staphylococcus aureus; conditions: 18 to 24 h
Description: as §3, §4

[15] = system: E. coli ATCC BAA-198 (ESBL); experiment: Antibacterial liquid microdilution (CLSI M07-A8); format: cell-based, Escherichia coli; conditions: 18 to 24 h
Description: as §3, §4

[16] = system: bloodstream forms of T. brucei clone 427-221a; experiment: Trypanocidal assay, resazurin viability assay; format: cell-based, Trypanosoma brucei
Description: (§5) All of the cultures were maintained at 37 °C in a humidified atmosphere containing 5% of CO2. Toxicity assays were performed, as previously described, with some modifications. In brief, trypanosomes and HL-60 cells were seeded at an initial cell density of 10^4/mL and 5 × 10^4/mL, respectively, in 96-well plates in a final volume of 200 μL culture medium containing various concentrations of test compounds dissolved in 100% DMSO. […] The controls contained DMSO alone. In all of the experiments, the final DMSO concentration was 0.9%. After 24 h incubation, 20 µL of a 0.5 mM resazurin solution prepared in PBS was added and the cultures were incubated for a further 48 h. Resazurin is a vital dye that, when being reduced by living cells, changes its colour from blue to pink. Thus, by measuring absorbance, the proliferation of cells can be easily determined. The change in absorbance was read with a microplate reader using a test wavelength of 570 nm and a reference wavelength of 630 nm. GI50 values were calculated by linear interpolation according to the method described by Huber and Koella. MIC values were determined microscopically.

[17] = system: human myeloid leukemia HL-60 cells; experiment: in vitro
Description: as §5

Row | SMILES | IC50 [1] [µM] | GI50 [3] [µM] | IC50 (U87-MG (glioblastoma)) [µM] | IC50 [4] [µM] | IC50 [5] [µM] | GI50 [6] [µM] | T. brucei MIC [6] [µM] | increase of apoptotic cells compared to untreated control cells (SKOV-3 cells [7]) | induction of autophagy (cells containing AVOs) (SKOV-3 cells [8]) | IC50 [9] [µM] | further results
1 | Nc1ncnc2c1ncn2CCC(O)[C]12[CH]3[CH]4[CH]5[CH]1[Mn]4532.[C-]#[O+].[C-]#[O+].[C-]#[O+] (racemic) [Compound B] | > 150 | > 100 | > 150 | > 150 | > 150 | 30.8 ± 3.5 | >100 | only a three-fold increase | Less induction of autophagy | > 150 | IC50 [2]: > 150 µM; Selectivity GI50 Ratio ([6]; HL-60 / T. brucei): >3.2
2 | NCCCC(N)(C(=O)O)C(F)F (stereo not shown) [DFMO, difluoromethylornithine, reference compound] |  |  |  |  |  | 23.9 | >125 |  |  |  | 
3 | COc1cccc2c1C(=O)c1c(O)c3c(c(O)c1C2=O)C[C@@](O)(C(=O)CO)C[C@@H]3O[C@H]1C[C@H](N)[C@H](O)[C@H](C)O1 [DOX, doxorubicin, reference compound] |  |  |  |  |  |  |  |  |  |  | IC50 ([1]; Homo sapiens, SK-OV-3, 24 h, read-out: cytotoxicity IC50, SKOV-3): 0.858 ± 0.044 µM; IC50 ([2]; Homo sapiens, A549, 24 h, read-out: cytotoxicity IC50, A549): 0.3 ± 0.018 µM; IC50 (U87-MG (glioblastoma); Homo sapiens, U-87 MG, 24 h, read-out: cytotoxicity IC50, U87-MG): 0.61 ± 0.029 µM; IC50 ([4]; Homo sapiens, MCF7, 24 h, read-out: cytotoxicity IC50, MCF-7): 0.439 ± 0.026 µM; IC50 ([5]; Homo sapiens, MDA-MB-231, 24 h, read-out: cytotoxicity IC50, MDA-MB-231): 1.07 ± 0.062 µM; IC50 ([9]; Homo sapiens, HepG2, 24 h, read-out: cytotoxicity IC50, HepG2): 0.569 ± 0.021 µM; IC50 ([10]; Homo sapiens, MCF7/DX, 24 h, read-out: cytotoxicity IC50, MCF-7/DX): 48.5 ± 2.78 µM; fold less effective against MCF-7/DX cells than MCF-7 cells ([10]; MCF-7/DX vs MCF-7): ~100 fold
4 | O=c1[nH]c(=O)n(CCC(O)[C]23[CH]4[CH]5[CH]6[CH]2[Mn]5643)cc1F.[C-]#[O+].[C-]#[O+].[C-]#[O+] (racemic) [Compound 2] | 97.5 ± 2.87 |  | 100 ± 1.01 | 119 ± 2.97 | > 150 |  |  | 11 fold | greatest autophagic changes | > 150 | MIC, S. epidermidis ATCC 12228 [11]: >512 µg/mL; MIC, S. aureus ATCC 29213 (MSSA) [12]: >512 µg/mL; MIC, S. aureus ATCC 700787 (VISA) [13]: >512 µg/mL; MIC, S. aureus ATCC 43300 (MRSA) [14]: >512 µg/mL; MIC, E. coli ATCC BAA-198 [15]: >512 µg/mL; GI50 ([16]; 50% growth inhibition): > 100 µM; MIC ([16]; concentration at which all cells were killed, determined microscopically): >100 µM; apoptotic cell fraction predominantly increased (SKOV-3 cells [7]; SKOV-3, IC50 concentrations): late-apoptotic cell fraction; GI50 [17]: > 100 µM; HL-60 MIC [17]: >100 µM
5 | O=C(CCn1ccc(=O)[nH]c1=O)[C]12[CH]3[CH]4[CH]5[CH]1[Mn]4532.[C-]#[O+].[C-]#[O+].[C-]#[O+] (stereo not shown) [non-fluorinated counterpart] |  | > 100 |  |  |  | 3.6 | 100 |  |  |  | HL-60 MIC [3]: > 100 µM
